# Assay results as given in ChEMBL document CHEMBL1201862, “PubChem BioAssay data set” (2004).
#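 Five concentrations, 48 hours, 96-well plates. GI50 marks 50% less growth.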 The source made the active and inactive calls. Cut-off read from the data, not from the text of the source: active = GI50 up to about 1.1 µM and inactive = higher.
# What was measured:
# Test in all cases: NCI anticancer screen, dose series, 48 h
# SF-539 = system: SF-539
# A549 = system: A549
# MDA-MB-231 = system: MDA-MB-231
# MDA-N = system: MDA-N
# OVCAR-4 = system: OVCAR-4
# NCI-H460 = system: NCI-H460
# OVCAR-3 = system: OVCAR-3
# CCRF-CEM = system: CCRF-CEM
# SNB-75 = system: SNB-75
# HCC 2998 = system: HCC 2998
# HCT-15 = system: HCT-15
# RXF 393 = system: RXF 393
# 786-0 = system: 786-0
# Hs-578T = system: Hs-578T
# SF-295 = system: SF-295
# NCI-H23 = system: NCI-H23
# RPMI-8226 = system: RPMI-8226
# SNB-19 = system: SNB-19
# SR = system: SR
# UACC-62 = system: UACC-62
SMILES,GI50 (SF-539),GI50 (A549),GI50 (MDA-MB-231),GI50 (MDA-N),GI50 (OVCAR-4),GI50 (NCI-H460),GI50 (OVCAR-3),GI50 (CCRF-CEM),GI50 (SNB-75),GI50 (HCC 2998),GI50 (HCT-15) [µM],GI50 (RXF 393),GI50 (786-0),GI50 (Hs-578T),GI50 (SF-295),GI50 (NCI-H23),GI50 (RPMI-8226),GI50 (SNB-19),GI50 (SR),GI50 (UACC-62)
COc1cccc(C2c3cc4c(cc3OC(C)(O)C2C)OCO4)c1O (centres undefined),2.67 µM (inactive),4.57 µM (inactive),0.897 µM (active),1.48 µM (inactive),11.6 µM (inactive),3.81 µM (inactive),2.81 µM (inactive),4.45 µM (inactive),5 µM (inactive),4.2 µM (inactive),3.64,3.69 µM (inactive),4.44 µM (inactive),2.68 µM (inactive),2.96 µM (inactive),0.966 µM (active),4.17 µM (inactive),5.2 µM (inactive),2.18 µM (inactive),5.12 µM (inactive)
O=C(O)CCn1cnc2c(S)ncnc21,> 100 µM (inactive),> 100 µM (inactive),> 100 µM (inactive),> 100 µM (inactive),> 100 µM (inactive),> 100 µM (inactive),> 100 µM (inactive),> 100 µM (inactive),> 100 µM (inactive),> 100 µM (inactive),> 100,> 100 µM (inactive),> 100 µM (inactive),> 100 µM (inactive),> 100 µM (inactive),> 100 µM (inactive),> 100 µM (inactive),> 100 µM (inactive),> 100 µM (inactive),> 100 µM (inactive)
CSc1nc(C)c(CCOC(C)=O)c(Cl)n1,> 100 µM (inactive),> 100 µM (inactive),> 100 µM (inactive),> 100 µM (inactive),> 100 µM (inactive),> 100 µM (inactive),> 100 µM (inactive),> 100 µM (inactive),> 100 µM (inactive),> 100 µM (inactive),> 100,> 100 µM (inactive),> 100 µM (inactive),> 100 µM (inactive),> 100 µM (inactive),> 100 µM (inactive),> 100 µM (inactive),> 100 µM (inactive),> 100 µM (inactive),> 100 µM (inactive)
N#Cc1nn(C2OC(COC(=O)c3ccccc3)C(OC(=O)c3ccccc3)C2OC(=O)c2ccccc2)c2nc[nH]c(=O)c12 (centres undefined),68.4 µM (inactive),39.6 µM (inactive),58.3 µM (inactive),49.2 µM (inactive),38.3 µM (inactive),30.4 µM (inactive),46 µM (inactive),18.5 µM (inactive),76 µM (inactive),78.2 µM (inactive),40.1,36.4 µM (inactive),35.9 µM (inactive),80.9 µM (inactive),46.5 µM (inactive),24.4 µM (inactive),39.4 µM (inactive),72.8 µM (inactive),30.9 µM (inactive),> 100 µM (inactive)
O=C1COCCN1C(=O)c1ccccc1Cl,> 100 µM (inactive),> 100 µM (inactive),> 100 µM (inactive),> 100 µM (inactive),> 100 µM (inactive),> 100 µM (inactive),> 100 µM (inactive),> 100 µM (inactive),> 100 µM (inactive),> 100 µM (inactive),> 100,> 100 µM (inactive),> 100 µM (inactive),> 100 µM (inactive),> 100 µM (inactive),> 100 µM (inactive),> 100 µM (inactive),> 100 µM (inactive),> 100 µM (inactive),> 100 µM (inactive)
CC(=O)O[C@H]1[C@@H](N2CCN(C)CC2)C[C@H]2[C@@H]3CC=C4C[C@@H](N5CCCC5)CC[C@]4(C)[C@H]3CC[C@@]21C,15 µM (inactive),37.7 µM (inactive),63 µM (inactive),26.1 µM (inactive),> 100 µM (inactive),60.5 µM (inactive),88.7 µM (inactive),30.4 µM (inactive),> 100 µM (inactive),17.2 µM (inactive),26.1,22.2 µM (inactive),25.8 µM (inactive),> 100 µM (inactive),21.7 µM (inactive),> 100 µM (inactive),19.2 µM (inactive),> 100 µM (inactive),< 0.01 µM (active),59.4 µM (inactive)
COC(=O)[C@@H]1CN(C(=O)CCc2ccccc2)C(=O)N1C(=O)OCc1ccccc1,> 100 µM (inactive),> 100 µM (inactive),> 100 µM (inactive),> 100 µM (inactive),> 100 µM (inactive),59.4 µM (inactive),> 100 µM (inactive),> 100 µM (inactive),> 100 µM (inactive),> 100 µM (inactive),> 100,> 100 µM (inactive),> 100 µM (inactive),57.1 µM (inactive),> 100 µM (inactive),> 100 µM (inactive),> 100 µM (inactive),> 100 µM (inactive),> 100 µM (inactive),> 100 µM (inactive)
O=C(N/N=C\c1ccc2ccccc2c1)Nc1ccc([N+](=O)[O-])cc1,19.5 µM (inactive),26.4 µM (inactive),32.2 µM (inactive),23.5 µM (inactive),22.1 µM (inactive),24.4 µM (inactive),20.2 µM (inactive),28.6 µM (inactive),42.4 µM (inactive),22.1 µM (inactive),16.8,26.4 µM (inactive),24 µM (inactive),32.9 µM (inactive),22.5 µM (inactive),22.2 µM (inactive),15.1 µM (inactive),24.3 µM (inactive),43 µM (inactive),24.7 µM (inactive)
O=C1/C(=C/c2ccc(Cl)cc2)Oc2ccccc21,20.6 µM (inactive),18.7 µM (inactive),> 100 µM (inactive),37.3 µM (inactive),46.5 µM (inactive),26.4 µM (inactive),> 100 µM (inactive),> 100 µM (inactive),32.7 µM (inactive),> 100 µM (inactive),66.7,21.4 µM (inactive),15.7 µM (inactive),18.7 µM (inactive),56.5 µM (inactive),23.4 µM (inactive),58.2 µM (inactive),37 µM (inactive),51.2 µM (inactive),58.6 µM (inactive)
O=[N+]([O-])c1ccc(C(O)(C#CCN2CCCC2)c2ccccc2)cc1 (centres undefined),82 µM (inactive),81.5 µM (inactive),43 µM (inactive),34.1 µM (inactive),31.5 µM (inactive),56.2 µM (inactive),49 µM (inactive),24.5 µM (inactive),30.1 µM (inactive),16.2 µM (inactive),60.7,57.9 µM (inactive),39.4 µM (inactive),28.9 µM (inactive),30.4 µM (inactive),96.8 µM (inactive),26.7 µM (inactive),98.2 µM (inactive),23.7 µM (inactive),24.7 µM (inactive)
O=C1c2c(O)ccc(O)c2C(=O)c2c(NCCNC(=O)C(O)C(O)C(O)C(O)CO)ccc(NCCNC(=O)C(O)C(O)C(O)C(O)CO)c21 (centres undefined),< 0.01 µM (active),< 0.01 µM (active),0.0467 µM (active),< 0.0494 µM (active),0.18 µM (active),< 0.01 µM (active),0.279 µM (active),0.0316 µM (active),0.0356 µM (active),0.135 µM (active),0.0138,0.221 µM (active),< 0.01 µM (active),0.213 µM (active),< 0.01 µM (active),0.0178 µM (active),< 0.01 µM (active),< 0.01 µM (active),< 0.01 µM (active),0.0154 µM (active)
CC(CC(=O)O)(CC(=O)O)C(=O)O,> 100 µM (inactive),> 100 µM (inactive),> 100 µM (inactive),> 100 µM (inactive),> 100 µM (inactive),> 100 µM (inactive),> 100 µM (inactive),,> 100 µM (inactive),> 100 µM (inactive),> 100,> 100 µM (inactive),> 100 µM (inactive),> 100 µM (inactive),> 100 µM (inactive),> 100 µM (inactive),> 100 µM (inactive),> 100 µM (inactive),> 100 µM (inactive),> 100 µM (inactive)
CCOC(=O)c1cn2c(n1)sc1cc(Cl)ccc12,5.78 µM (inactive),15.6 µM (inactive),> 100 µM (inactive),2.71 µM (inactive),> 100 µM (inactive),> 100 µM (inactive),14.1 µM (inactive),5.45 µM (inactive),31 µM (inactive),> 100 µM (inactive),5.64,45 µM (inactive),6.58 µM (inactive),24.7 µM (inactive),35.2 µM (inactive),62.2 µM (inactive),8.41 µM (inactive),8.28 µM (inactive),1.55 µM (inactive),59.7 µM (inactive)
COC(=O)C1=C(OC(=O)/C(=C/c2ccccc2)c2ccc(Cl)cc2Cl)C(C(=O)OC)[C@@]2(O)[C@@H](C(=O)OC)[C@H](C)C[C@@H]1[C@@H]2C(=O)OC (some centres undefined),> 100 µM (inactive),> 100 µM (inactive),> 100 µM (inactive),> 100 µM (inactive),> 100 µM (inactive),> 100 µM (inactive),> 100 µM (inactive),> 100 µM (inactive),75.9 µM (inactive),> 100 µM (inactive),> 100,> 100 µM (inactive),> 100 µM (inactive),> 100 µM (inactive),> 100 µM (inactive),> 100 µM (inactive),> 100 µM (inactive),> 100 µM (inactive),> 100 µM (inactive),> 100 µM (inactive)
